The subject of test [1] is ovalbumin (OVA) sensitized mouse model of asthma. Kind of test: ovalbumin (OVA) sensitized mouse model of asthma. In kind it is in vivo, BALB/c mice. Particulars: for IL-13: once daily subcutaneous injection, dexamethasone 5 mg/kg, triol 1 mg/mouse; for level of IL-5 in lung tissue: vehicle value stated for day 38, subcutaneous treatment. As for the experimental part: BALB/c mice were sensitized by intraperitoneal injection with OVA (in alum adjuvant) on days 1, and 12. Airways were challenged with OVA on days 28 and 30 by delivery of OVA to the lung, or with saline. On day 31, six mice were with saline and 6 mice challenged with OVA were sacrificed and lung tissue was analyzed. The remaining animals were divided into 6 groups (6 mice per group). Groups of the mice were treated once daily by subcutaneous injection as follows. Group 1 vehicle control (0.1% carboxymethyl cellulose, 0.9% saline, 2% Tween 80, 0.05% phenol). Group 2 dexamethasone (5 mg/kg). Group 3 androstane-3α,16α,17α-triol (1 mg/mouse). Three animals in groups 1-3 were sacrificed on day 35 at 1 hr after final treatment and the remaining 3 animals in groups 1-3 were sacrificed on day 38.

In test [2] the test system is bone marrow-derived mast cells (BMMC). Kind of test: mast cell stimulus-coupled degranulation (release of β-glucuronidase). In kind it is cell-based, Balb/C mice. As for the experimental part: In another protocol, a population of mast cells was cultivated from murine bone marrow as follows. Briefly, bone marrows from Balb/C mice were flushed from the femur using PBS and a 27 g needle. The cells were cultured in a mixture of ⅔ RPMI-1640 with 19% FBS and cells that secreted IL-3. The bone marrow cells were allowed to differentiate for 18-25 days in the IL-3-containing mixture before being used for experiments. Bone marrow cells cultured in this manner have a phenotype similar to mucosal mast cells and are referred to as bone marrow-derived mast cells (BMMC).
The homogeneity of the in vitro propagated mast cells was checked by conventional flow cytometric techniques and staining for cell-type specific markers. Between days 14 and 21 of propagation, mature mast cells were harvested and prepared for the test cultures. The objective was to assess of the effect of compounds such as dehydroepiandrosterone on mast cell stimulus-coupled degranulation. Prepared mast cells were dispensed into test culture wells at a density of 1×10^7 cells/mL. In control cultures, mast cells were induced to degranulate after cross linking of IgE receptors with IgE antigen-antibody complexes. In parallel groups of cultures mast cells were preincubated dehydroepiandrosterone at various doses followed by activation using anti-IgE antibody. There was no detectable degranulation of mast cells as measured by release of β-glucuronidase from cytosolic storage granules of the cells in the absence of the stimulus. Introduction of anti-Ig-E receptor antibody to the cultures caused a significant release of β-glucuronidase.

Where [3] appears, read: day 35, 1 hr after final treatment.

SMILES strings stand for the structures.

Take `C[C@]12CC[C@H]3[C@@H](CCC4C[C@H](O)CC[C@@]43C)[C@@H]1C[C@@H](O)[C@H]2O` (stereo partly drawn) [androstane-3α,16α,17α-triol]: the “capacity to limit eosinophil burden and reduce key inflammatory mediators (IL-5, IL-13, cysteinyl leukotrienes)” value in test [1] (OVA sensitized mice) was “limit eosinophil burden and to reduce key inflammatory mediators”. Moreover, the “IL-13 increase (rebound) after treatment” value in test [1] (compared with dexamethasone treated animals) is given as “did not generate an IL-13 increase”. Moreover, the IL-13 is listed as 195 pg/mL in test [1] (setting [3]) and 210 pg/mL in test [1] (day 38). Moreover, the “level of IL-5 in lung tissue” value in test [1] worked out at 90 pg/mL.
As usually defined, the inhibition is the change of the read-out against control, counted positive when it falls. `C[C@]12CC[C@H](O)CC1=CC[C@@H]1[C@@H]2CC[C@]2(C)C(=O)CC[C@@H]12` [dehydroepiandrosterone] displayed an inhibition at 100 µM in test [2] (Mus musculus, BMMC, 100 μM, pre-exposed 5 to 10 minutes before activation with anti-IgE antigen-antibody complexes) of around 70%. In addition, in test [2] (levels lower than 100 μM), the “inhibition of degranulation at lower levels” value is “proportionately less capacity to inhibit degranulation”. Besides, in test [2] (no stimulus, release of β-glucuronidase), the “degranulation on exposure to compound alone” value is given as “no measurable degranulation”.
Consider `C[C@@H]1C[C@H]2[C@@H]3CCC4=CC(=O)C=C[C@]4(C)[C@@]3(F)[C@@H](O)C[C@]2(C)[C@@]1(O)C(=O)CO` [dexamethasone], for which the IL-13 in test [1] (setting [3]) was 340 pg/mL; in test [1] (day 38), 390 pg/mL. Further, the “level of IL-5 in lung tissue” value in test [1] is reported as 145 pg/mL.

The values above are taken from US20120252774A1, “STEROID TETROL SOLID STATE FORMS - 2” (priority 2010, published 2012).
